Data taken from patent US12712052B2, “Method and system to identify natural products from mass spectrometry and genomics data” (priority 2021, dated 2026).
Converted amounts (≈) assume the structure as drawn. Like-named read-outs stand apart in the source and are kept apart here. Starred links: 1 amine or outer side, 2 acyl side, 3 side chain; linkers in the order of their positions; H or OH if unused. Positions of bridges follow the written chain, without caps; N, C: chain ends. Non-standard residues stand in square brackets, D forms with d. Residues, ends and D or L forms follow the SMILES beside them. *: point of attachment. hTyr(3S-OH,4S-OH,3'-OSO3H) = N[C@H](C(=O)O)[C@H](O)[C@@H](O)c1ccc(O)c(OS(=O)(=O)O)c1; pTerphenylCO(4''-OnC5H11) = CCCCCOc1ccc(-c2ccc(-c3ccc(C(=O)*)cc3)cc2)cc1; Orn(4R-OH,5R-OH) = O=C([C@H](C[C@@H](O)[C@@H](O)N[*:3])N[*:1])[*:2]; hTyr(3S-OH,4S-OH) = N[C@H](C(=O)O)[C@H](O)[C@@H](O)c1ccc(O)cc1; Pro(3S-OH,4S-Me) = C[C@H]1CN[C@H](C(=O)O)[C@H]1O; X1 = CCCCCOc1ccc(-c2cc(-c3ccc(C(=O)*)cc3)no2)cc1; Gln(3R-OH) = NC(=O)C[C@@H](O)[C@H](N)C(=O)O; Hyp = O=C(O)[C@@H]1C[C@@H](O)CN1

How the values were obtained:
C. albicans ATCC 90028 = test: MIC against C. albicans ATCC 90028; type: cell-based, Candida albicans; conditions: for MIC: Candida albicans
Description: (§1) Direct bioactivity screening experiments of CHM-752 are performed against Candida pathogens (Table 13).

C. albicans MYA-574 = test: MIC against C. albicans MYA-574; type: cell-based, Candida albicans; conditions: for MIC: Candida albicans
Description: as §1

C. auris CDC #0381 = test: MIC against C. auris CDC #0381; type: cell-based, Candida auris; conditions: for MIC: Candidozyma auris, read-out: minimum inhibitory concentration (MIC)
Description: as §1

C. auris CDC #0383 = test: MIC against C. auris CDC #0383; type: cell-based, Candida auris; conditions: for MIC: Candidozyma auris, read-out: minimum inhibitory concentration (MIC)
Description: as §1

C. auris CDC #0384 = test: MIC against C. auris CDC #0384; type: cell-based, Candida auris; conditions: for MIC: Candidozyma auris, read-out: minimum inhibitory concentration (MIC)
Description: as §1

C. auris CDC #0385 = test: MIC against C. auris CDC #0385; type: cell-based, Candida auris; conditions: for MIC: Candidozyma auris, read-out: minimum inhibitory concentration (MIC)
Description: as §1

C. auris CDC #0387 = test: MIC against C. auris CDC #0387; type: cell-based, Candida auris; conditions: for MIC: Candidozyma auris, read-out: minimum inhibitory concentration (MIC)
Description: as §1

C. auris CDC #0389 = test: MIC against C. auris CDC #0389; type: cell-based, Candida auris; conditions: for MIC: Candidozyma auris, read-out: minimum inhibitory concentration (MIC)
Description: as §1

C. auris CDC #0390 = test: MIC against C. auris CDC #0390; type: cell-based, Candida auris; conditions: for MIC: Candidozyma auris, read-out: minimum inhibitory concentration (MIC)
Description: as §1

C. glabrata ATCC 36583 = test: MIC against C. glabrata ATCC 36583; type: cell-based; conditions: for MIC: Nakaseomyces glabratus, ATCC36583, read-out: minimum inhibitory concentration (MIC)
Description: as §1

C. glabrata CDC #0315 = test: MIC against C. glabrata CDC #0315; type: cell-based; conditions: for MIC: Nakaseomyces glabratus, read-out: minimum inhibitory concentration (MIC)
Description: as §1

C. glabrata CDC #0318 = test: MIC against C. glabrata CDC #0318; type: cell-based; conditions: for MIC: Nakaseomyces glabratus, read-out: minimum inhibitory concentration (MIC)
Description: as §1

C. glabrata CDC #0321 = test: MIC against C. glabrata CDC #0321; type: cell-based; conditions: for MIC: Nakaseomyces glabratus, read-out: minimum inhibitory concentration (MIC)
Description: as §1

C. glabrata CDC #0325 = test: MIC against C. glabrata CDC #0325; type: cell-based; conditions: for MIC: Nakaseomyces glabratus, read-out: minimum inhibitory concentration (MIC)
Description: as §1

[1] = ATCC90028, read-out: minimum inhibitory concentration (MIC)
[2] = ATCC90028, C. albicans ATCC 90028, read-out: minimum inhibitory concentration (MIC)
[3] = MYA574, C. albicans MYA-574, read-out: minimum inhibitory concentration (MIC)

| Structure (SMILES) | MIC (C. albicans ATCC 90028; [1]) | MIC (C. auris CDC #0381) | MIC (C. auris CDC #0383) | MIC (C. auris CDC #0384) | MIC (C. auris CDC #0385) | MIC (C. auris CDC #0387) | MIC (C. albicans ATCC 90028; [2]) | MIC (C. albicans MYA-574; [3]) | MIC (C. auris CDC #0381; C. auris CDC #0381) | MIC (C. auris CDC #0383; C. auris CDC #0383) | MIC (C. auris CDC #0384; C. auris CDC #0384) | MIC (C. auris CDC #0385; C. auris CDC #0385) | MIC (C. auris CDC #0387; C. auris CDC #0387) | MIC (C. auris CDC #0389; C. auris CDC #0389) | MIC (C. auris CDC #0390; C. auris CDC #0390) | MIC (C. glabrata ATCC 36583) | MIC (C. glabrata CDC #0315; C. glabrata CDC #0315) | MIC (C. glabrata CDC #0318; C. glabrata CDC #0318) | MIC (C. glabrata CDC #0321; C. glabrata CDC #0321) | MIC (C. glabrata CDC #0325; C. glabrata CDC #0325) | also measured |
| --- | --- | --- | --- | --- | --- | --- | --- | --- | --- | --- | --- | --- | --- | --- | --- | --- | --- | --- | --- | --- | --- |
| C[C@@H]1[C@H](O)[C@@H](C)/C=C/C=C/C=C/C=C/C=C/C=C/C=C/[C@H](O[C@@H]2O[C@H](C)[C@@H](O)[C@H](N)[C@@H]2O)C[C@@H]2O[C@](O)(C[C@@H](O)C[C@@H](O)[C@H](O)CC[C@@H](O)C[C@@H](O)CC(=O)O[C@H]1C)C[C@H](O)[C@H]2C(=O)O [AMP, Amphotericin B] |  |  |  |  |  |  |  |  |  |  |  |  |  |  |  |  |  |  |  |  | minimum inhibitory concentration (MIC) (C. albicans ATCC 90028; C. albicans ATCC 90028): 0.13 µg/mL (≈ 0.141 µM); minimum inhibitory concentration (MIC) (C. albicans MYA-574; C. albicans MYA-574): 0.13 µg/mL (≈ 0.141 µM); minimum inhibitory concentration (MIC) (C. auris CDC #0381; C. auris CDC #0381): 0.13 µg/mL (≈ 0.141 µM); minimum inhibitory concentration (MIC) (C. auris CDC #0383; C. auris CDC #0383): 0.38 µg/mL (≈ 0.411 µM); minimum inhibitory concentration (MIC) (C. auris CDC #0384; C. auris CDC #0384): 0.5 µg/mL (≈ 0.541 µM); minimum inhibitory concentration (MIC) (C. auris CDC #0385; C. auris CDC #0385): 0.5 µg/mL (≈ 0.541 µM); minimum inhibitory concentration (MIC) (C. auris CDC #0387; C. auris CDC #0387): 0.75 µg/mL (≈ 0.812 µM); minimum inhibitory concentration (MIC) (C. auris CDC #0389; C. auris CDC #0389): 4 µg/mL (≈ 4.33 µM); minimum inhibitory concentration (MIC) (C. auris CDC #0390; C. auris CDC #0390): 4 µg/mL (≈ 4.33 µM); minimum inhibitory concentration (MIC) (C. glabrata ATCC 36583): 0.13 µg/mL (≈ 0.141 µM); minimum inhibitory concentration (MIC) (C. glabrata CDC #0315; C. glabrata CDC #0315): 0.38 µg/mL (≈ 0.411 µM); minimum inhibitory concentration (MIC) (C. glabrata CDC #0318; C. glabrata CDC #0318): 0.19 µg/mL (≈ 0.206 µM); minimum inhibitory concentration (MIC) (C. glabrata CDC #0321; C. glabrata CDC #0321): 0.09 µg/mL (≈ 0.0974 µM); minimum inhibitory concentration (MIC) (C. glabrata CDC #0325; C. glabrata CDC #0325): 0.25 µg/mL (≈ 0.271 µM) |
| CCCCCOc1ccc(-c2cc(-c3ccc(C(=O)N[C@H]4C[C@@H](O)[C@@H](O)NC(=O)[C@@H]5[C@@H](O)[C@@H](C)CN5C(=O)[C@H]([C@H](O)CC(N)=O)NC(=O)[C@H]([C@H](O)[C@@H](O)c5ccc(O)c(OS(=O)(=O)O)c5)NC(=O)[C@@H]5C[C@@H](O)CN5C(=O)[C@H]([C@@H](C)O)NC4=O)cc3)no2)cc1 [MF, Micafungin] (X1-[Orn(4R-OH,5R-OH)]T[Hyp][hTyr(3S-OH,4S-OH,3'-OSO3H)][Gln(3R-OH)][Pro(3S-OH,4S-Me)]; lactam 1-C) | 0.02 µg/mL (≈ 0.0157 µM) | 0.13 µg/mL (≈ 0.102 µM) | 1 µg/mL (≈ 0.787 µM) | 2 µg/mL (≈ 1.57 µM) | 0.5 µg/mL (≈ 0.394 µM) | 0.5 µg/mL (≈ 0.394 µM) |  |  |  |  |  |  |  |  |  |  |  |  |  |  | MIC (C. albicans MYA-574; MYA574, read-out: minimum inhibitory concentration (MIC)): 0.06 µg/mL (≈ 0.0472 µM); MIC (C. auris CDC #0389): 0.25 µg/mL (≈ 0.197 µM); MIC (C. auris CDC #0390): 0.25 µg/mL (≈ 0.197 µM); MIC (C. glabrata CDC #0315): 4 µg/mL (≈ 3.15 µM); MIC (C. glabrata CDC #0318): 4 µg/mL (≈ 3.15 µM); MIC (C. glabrata CDC #0321): 1 µg/mL (≈ 0.787 µM); MIC (C. glabrata CDC #0325): 4 µg/mL (≈ 3.15 µM) |
| OC(Cn1cncn1)(Cn1cncn1)c1ccc(F)cc1F [FLC, Fluconazole] |  |  |  |  |  |  | 0.25 µg/mL (≈ 0.816 µM) | 64 µg/mL (≈ 209 µM) | 4 µg/mL (≈ 13.1 µM) | 128 µg/mL (≈ 418 µM) | 128 µg/mL (≈ 418 µM) | > 256 µg/mL | 8 µg/mL (≈ 26.1 µM) | 256 µg/mL (≈ 836 µM) | > 256 µg/mL | 8 µg/mL (≈ 26.1 µM) | 4 µg/mL (≈ 13.1 µM) | 32 µg/mL (≈ 104 µM) | 64 µg/mL (≈ 209 µM) | 128 µg/mL (≈ 418 µM) |  |
| C[C@@H](c1ncncc1F)[C@](O)(Cn1cncn1)c1ccc(F)cc1F [VRC, Voriconazole] |  |  |  |  |  |  | 0.01 µg/mL (≈ 0.0286 µM) | 0.25 µg/mL (≈ 0.716 µM) | 0.03 µg/mL (≈ 0.0859 µM) | 4 µg/mL (≈ 11.5 µM) | 1 µg/mL (≈ 2.86 µM) | 16 µg/mL (≈ 45.8 µM) | 0.06 µg/mL (≈ 0.172 µM) | 0.4 µg/mL (≈ 1.15 µM) | 8 µg/mL (≈ 22.9 µM) | 0.5 µg/mL (≈ 1.43 µM) | 0.25 µg/mL (≈ 0.716 µM) | 1 µg/mL (≈ 2.86 µM) | 2 µg/mL (≈ 5.73 µM) | 16 µg/mL (≈ 45.8 µM) |  |
| CCCCCOc1ccc(-c2ccc(-c3ccc(C(=O)N[C@H]4C[C@@H](O)[C@@H](O)NC(=O)[C@@H]5[C@@H](O)[C@@H](C)CN5C(=O)[C@H]([C@@H](C)O)NC(=O)[C@H]([C@H](O)[C@@H](O)c5ccc(O)cc5)NC(=O)[C@@H]5C[C@@H](O)CN5C(=O)[C@H]([C@@H](C)O)NC4=O)cc3)cc2)cc1 [ANI, Anidulafungin] ({pTerphenylCO(4''-OnC5H11)}-[Orn(4R-OH,5R-OH)]T[Hyp][hTyr(3S-OH,4S-OH)]T[Pro(3S-OH,4S-Me)]; lactam 1-C) | 0.01 µg/mL (≈ 0.00877 µM) | 0.25 µg/mL (≈ 0.219 µM) | 1 µg/mL (≈ 0.877 µM) | 2 µg/mL (≈ 1.75 µM) | 1 µg/mL (≈ 0.877 µM) | 0.5 µg/mL (≈ 0.438 µM) |  |  |  |  |  |  |  |  |  |  |  |  |  |  | MIC (C. auris CDC #0389): 1 µg/mL (≈ 0.877 µM); MIC (C. auris CDC #0390): 1 µg/mL (≈ 0.877 µM); MIC (C. glabrata CDC #0315): 2 µg/mL (≈ 1.75 µM); MIC (C. glabrata CDC #0318): 4 µg/mL (≈ 3.51 µM); MIC (C. glabrata CDC #0321): 2 µg/mL (≈ 1.75 µM); MIC (C. glabrata CDC #0325): 4 µg/mL (≈ 3.51 µM) |
| CC[C@H](C)C[C@H](C)CCCCCCCCC(=O)N[C@H]1C[C@@H](O)[C@@H](NCCN)NC(=O)[C@@H]2[C@@H](O)CCN2C(=O)[C@H]([C@H](O)CCN)NC(=O)[C@H]([C@H](O)[C@@H](O)c2ccc(O)cc2)NC(=O)[C@@H]2C[C@@H](O)CN2C(=O)[C@H]([C@@H](C)O)NC1=O [CAS, Caspofungin] |  |  |  |  |  |  | 0.5 µg/mL (≈ 0.457 µM) | 0.5 µg/mL (≈ 0.457 µM) | 0.13 µg/mL (≈ 0.119 µM) | 0.25 µg/mL (≈ 0.229 µM) | 16 µg/mL (≈ 14.6 µM) | 0.5 µg/mL (≈ 0.457 µM) | 0.25 µg/mL (≈ 0.229 µM) | 0.5 µg/mL (≈ 0.457 µM) | 0.5 µg/mL (≈ 0.457 µM) | 0.5 µg/mL (≈ 0.457 µM) | 16 µg/mL (≈ 14.6 µM) | 16 µg/mL (≈ 14.6 µM) | 4 µg/mL (≈ 3.66 µM) | > 16 µg/mL |  |
